# Measurements published in patent publication US20230405315A1, “Compositions And Methods For Treating With A Combination Of Alternating Electric Fields And FGF Inhibitors” (NOVOCURE GMBH, priority 2022, published 2023).
# How the values were obtained:
# [1] = test system: FGFR1 mRNA expression in SRC1 and SRC2 glioblastoma stem cells; experiment: FGFR1 mRNA expression by qPCR in glioblastoma stem cells treated with TTFields and FGFR inhibitor; format: cell-based; details: PMGB 125 nM concomitantly with TTFields 200 kHz for 3 days
# Protocol: FGFR1 mRNA level was quantified by qPCR in SRC1 and SRC2 glioblastoma stem cells after 3 days treatment with TTFields (200 kHz). Results are expressed in Fold change of FGFR1 expression in cells treated with TTFields compared to FGFR1 expression in non treated cells with TTFields.
# Pemigatininb (PMGB) is an FGFR inhibitor. SRC1 and SRC2 were treated concomitantly with PMGB (125 nM) and TTFields (200 kHz) for 3 days. Results are expressed in Fold change of FGFR1 expression in cells treated with TTFields compared to FGFR1 expression in control cells.
# (§1) This study focuses on the involvement of FGFR1 in the control of sensitivity to TTFields. The study was performed on several glioblastoma stem cells (GSC) fully characterized in vitro and in vivo that were obtained from clinical trial STEMRI (NCT01872221) at Institut Claudius Regaud. The inventors wish to thank Institut Claudius Regaud for providing the glioblastoma stem cells used in these experiments.
# [2] = test system: GBM biopsy specimen (SRA4, SRC1, SRC2, SRB2, and SRA5) glioblastoma stem cells; experiment: Cell survival to TTFields in the presence of FGFR1 inhibitor; format: cell-based; details: 5 GBM biopsy specimen, 3 days of TTFields 200 kHz and PMGB 125 nM
# Protocol: as §1
# The mechanism of radiation to induce cell death can be a result of DNA damage which leads to apoptosis, because it is known that TTFields also generate DNA damage and reduce the DNA repair mechanism. Radio sensitization is […] following addition of FGFR inhibitor. There is increased sensitivity to TTFields when there is concomitant treatment with FGFR inhibition which indicates a synergistic result of increased secretion of FGF family members in serum and conditioned media following TTFields application, thus explaining the reduced sensitivity of cells to TTFields.
# FGF1, 2, 3, or 4 = details: comparison with lenvatinib (nonselective inhibitor of FGFR); cited from earlier work
smiles,measurement,setting,value
CCN1C(=O)N(c2c(F)c(OC)cc(OC)c2F)Cc2cnc3[nH]c(CN4CCOCC4)cc3c21 [Pemigatinib],FGFR1 mRNA expression induced by TTFields (fold change vs control cells),[1]; listed as PMGB,inhibited
same,FGFR1 mRNA expression induced by TTFields (fold change vs control cells),[1]; listed as pemigatinib,inhibition
same,Cytotoxic effect / cell survival,[2],cytotoxic effect
same,"IC50 against at least one of FGF1, 2, 3, or 4, compared with lenvatinib","FGF1, 2, 3, or 4",significantly lower IC50
